Laboratory results: PMC7352507, “The Genome Analysis of Methylobacterium populi YC-XJ1 with Diverse Xenobiotics Biodegrading Capacity and Degradation Characteristics of Related Hydrolase” (International Journal of Molecular Sciences, 2020)

Experiments:
DEPH1 = tested on: T1, DEPH1; test: residual substrate (HPLC or GC), Lineweaver-Burk; format: biochemical, Methylorubrum populi; conditions: 10 mM PBS pH 7.0, 25 °C; 500 µg enzyme; DEP 0.2-2.4 mM
T1 construct: full length, 280 aa, 29,714 Da, no signal peptide; pET-32a(+) BamHI/HindIII, Trx/His/S tags kept (about 48 kDa on SDS-PAGE); E. coli

QPEH2 = tested on: T2, QPEH2; test: HPLC of residual substrate, Lineweaver-Burk; format: biochemical, Methylorubrum populi; conditions: 10 mM PBS pH 7.0, 25 °C; 120 µg enzyme; QPE 0.2-2.4 mM
T2 construct: full length, 367 aa, 39,840 Da, no signal peptide; pET-32a(+) BamHI/HindIII, fused tags (His/S stated; about 45 kDa on SDS-PAGE) kept; E. coli

Km (QPEH2) [µM] | Compound | Km (DEPH1) [µM]
 | CCOC(=O)c1ccccc1C(=O)OCC [diethyl phthalate] | 1040 ± 270
83.9 ± 30.3 | CCOC(=O)[C@@H](C)Oc1ccc(Oc2cnc3cc(Cl)ccc3n2)cc1 [quizalofop-p-ethyl] | 
